Measured values: patent US20260042764A1, “COMPOSITIONS AND METHODS FOR INHIBITION OF KRAS” (TheRas, Inc., priority 2022, published 2026)

molecular target: T1, Avi-KRAS G12D (1-169) GppNHp/RAF1 RBD-3xFLAG (52-151) (Homo sapiens, UniProt P01116, G12D); experiment: Raf1-KRAS G12D-GppNHP disruption HTRF assay (Biological Example 1); format: binding; conditions: KRAS G12D-GppNHp/RAF1 RBD HTRF
T1 construct: Avi-KRAS G12D (1-169)
In short: (§1)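 Measured with a KRAS/RAF1 HTRF assay at pH 7.5 in 10% DMSO, with two 1 h room-temperature incubations with shaking.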

T1 sequence (P01116 1-169 isoform P01116-2 G12D): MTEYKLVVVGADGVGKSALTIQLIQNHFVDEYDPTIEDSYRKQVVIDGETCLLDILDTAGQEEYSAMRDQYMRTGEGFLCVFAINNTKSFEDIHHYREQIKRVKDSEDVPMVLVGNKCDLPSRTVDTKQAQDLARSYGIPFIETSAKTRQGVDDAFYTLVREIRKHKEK

| SMILES | IC50 |
| --- | --- |
| CCN(c1nc(OC[C@@]23CCCN2C[C@H](F)C3)nc2c(F)c(-c3ccc(F)c4sc(N)c(C#N)c34)c(C(F)(F)F)cc12)[C@H]1CCN(C(=O)N2CCCC2)C1 [Compound 542] | < 100 nM |
| CCN(c1nc(OC[C@@]23CCCN2C[C@H](F)C3)nc2c(F)c(-c3ccc(F)c4sc(N)c(C#N)c34)c(C(F)(F)F)cc12)[C@H]1CCN(C(=O)C2CC2(F)F)C1 (stereo partly drawn) [Compound 548] | < 100 nM |
| CCN(c1nc(OC[C@@]23CCCN2C[C@H](F)C3)nc2c(F)c(-c3ccc(F)c4sc(N)c(C#N)c34)c(C(F)(F)F)cc12)[C@H]1CC(=O)N(CC(F)F)C1 [Compound 549] | < 100 nM |
| CCN(c1nc(OC[C@@]23CCCN2C[C@H](F)C3)nc2c(F)c(-c3ccc(F)c4sc(N)c(C#N)c34)c(C(F)(F)F)cc12)[C@H]1CCN(C(=O)C2(C#N)CC2)C1 [Compound 560] | < 100 nM |
| C[C@@H]1[C@H](N(C)c2nc(OC[C@]34C[C@@H](F)CN3CC3(CC3)C4)nc3c(F)c(-c4ccc(F)c5sc(N)c(C#N)c45)c(C(F)(F)F)cc23)CCN1C(=O)C1CC1 [Compound 564] | 100 to 1000 nM |
| [2H]C1([2H])CN2C[C@H](F)C[C@]2(COc2nc(N(CC)[C@H]3CCN(C(=O)C(C)C)C3)c3cc(C(F)(F)F)c(-c4ccc(F)c5sc(N)c(C#N)c45)c(F)c3n2)C1 [Compound 565] | < 100 nM |

molecular target: T2, Avi-KRAS G12V (1-169) GppNHp/RAF1 RBD-3xFLAG (52-151) (Homo sapiens, UniProt P01116, G12V); experiment: Raf1-KRAS G12V-GppNHP disruption HTRF assay (Biological Example 1); format: binding; conditions: KRAS G12V-GppNHp/RAF1 RBD HTRF
T2 construct: Avi-KRAS G12V (1-169)
T2 sequence (P01116 1-169 isoform P01116-2 G12V): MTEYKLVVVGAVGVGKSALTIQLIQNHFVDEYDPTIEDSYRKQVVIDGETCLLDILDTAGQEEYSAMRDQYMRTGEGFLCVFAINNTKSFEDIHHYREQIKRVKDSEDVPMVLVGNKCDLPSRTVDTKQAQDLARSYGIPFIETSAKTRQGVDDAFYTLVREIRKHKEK
In short: as §1

| SMILES | IC50 |
| --- | --- |
| CCN(c1nc(OC[C@@]23CCCN2C[C@H](F)C3)nc2c(F)c(-c3ccc(F)c4sc(N)c(C#N)c34)c(C(F)(F)F)cc12)[C@H]1CCN(C(=O)N2CCCC2)C1 [Compound 542] | < 100 nM |
| CCN(c1nc(OC[C@@]23CCCN2C[C@H](F)C3)nc2c(F)c(-c3ccc(F)c4sc(N)c(C#N)c34)c(C(F)(F)F)cc12)[C@H]1CCN(C(=O)C2CC2(F)F)C1 (stereo partly drawn) [Compound 548] | < 100 nM |
| CCN(c1nc(OC[C@@]23CCCN2C[C@H](F)C3)nc2c(F)c(-c3ccc(F)c4sc(N)c(C#N)c34)c(C(F)(F)F)cc12)[C@H]1CC(=O)N(CC(F)F)C1 [Compound 549] | 100 to 1000 nM |
| CCN(c1nc(OC[C@@]23CCCN2C[C@H](F)C3)nc2c(F)c(-c3ccc(F)c4sc(N)c(C#N)c34)c(C(F)(F)F)cc12)[C@H]1CCN(C(=O)C2(C#N)CC2)C1 [Compound 560] | < 100 nM |
| C[C@@H]1[C@H](N(C)c2nc(OC[C@]34C[C@@H](F)CN3CC3(CC3)C4)nc3c(F)c(-c4ccc(F)c5sc(N)c(C#N)c45)c(C(F)(F)F)cc23)CCN1C(=O)C1CC1 [Compound 564] | 1000 to 10000 nM |
| [2H]C1([2H])CN2C[C@H](F)C[C@]2(COc2nc(N(CC)[C@H]3CCN(C(=O)C(C)C)C3)c3cc(C(F)(F)F)c(-c4ccc(F)c5sc(N)c(C#N)c45)c(F)c3n2)C1 [Compound 565] | 100 to 1000 nM |

molecular target: T3, Avi-KRAS G12R (1-169) GppNHp/RAF1 RBD-3xFLAG (52-151) (Homo sapiens, UniProt P01116, G12R); experiment: Raf1-KRAS G12R-GppNHP disruption HTRF assay (Biological Example 1); format: binding; conditions: KRAS G12R-GppNHp/RAF1 RBD HTRF
T3 construct: Avi-KRAS G12R (1-169)
T3 sequence (P01116 1-169 isoform P01116-2 G12R): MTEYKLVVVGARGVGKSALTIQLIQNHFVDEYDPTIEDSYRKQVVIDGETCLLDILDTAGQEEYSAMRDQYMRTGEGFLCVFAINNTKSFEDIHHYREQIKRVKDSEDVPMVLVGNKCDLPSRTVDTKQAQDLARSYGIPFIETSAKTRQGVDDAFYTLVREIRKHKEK
In short: as §1

| SMILES | IC50 |
| --- | --- |
| CCN(c1nc(OC[C@@]23CCCN2C[C@H](F)C3)nc2c(F)c(-c3ccc(F)c4sc(N)c(C#N)c34)c(C(F)(F)F)cc12)[C@H]1CCN(C(=O)N2CCCC2)C1 [Compound 542] | < 100 nM |
| CCN(c1nc(OC[C@@]23CCCN2C[C@H](F)C3)nc2c(F)c(-c3ccc(F)c4sc(N)c(C#N)c34)c(C(F)(F)F)cc12)[C@H]1CCN(C(=O)C2CC2(F)F)C1 (stereo partly drawn) [Compound 548] | < 100 nM |
| CCN(c1nc(OC[C@@]23CCCN2C[C@H](F)C3)nc2c(F)c(-c3ccc(F)c4sc(N)c(C#N)c34)c(C(F)(F)F)cc12)[C@H]1CC(=O)N(CC(F)F)C1 [Compound 549] | 100 to 1000 nM |
| CCN(c1nc(OC[C@@]23CCCN2C[C@H](F)C3)nc2c(F)c(-c3ccc(F)c4sc(N)c(C#N)c34)c(C(F)(F)F)cc12)[C@H]1CCN(C(=O)C2(C#N)CC2)C1 [Compound 560] | < 100 nM |
| C[C@@H]1[C@H](N(C)c2nc(OC[C@]34C[C@@H](F)CN3CC3(CC3)C4)nc3c(F)c(-c4ccc(F)c5sc(N)c(C#N)c45)c(C(F)(F)F)cc23)CCN1C(=O)C1CC1 [Compound 564] | 100 to 1000 nM |
| [2H]C1([2H])CN2C[C@H](F)C[C@]2(COc2nc(N(CC)[C@H]3CCN(C(=O)C(C)C)C3)c3cc(C(F)(F)F)c(-c4ccc(F)c5sc(N)c(C#N)c45)c(F)c3n2)C1 [Compound 565] | < 100 nM |

test system: SW620 cells (KRAS G12V); experiment: Cell-based pERK HTRF assay in SW620 cell (Biological Example 4); conditions: Homo sapiens, SW-620, SW620 (KRAS G12V) cells, pERK HTRF
In short: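 SW620 cells were treated for 4 h with compound in a 9-point half-log series from 1 μM top (0.25% DMSO), then lysed. Phospho-ERK was detected by HTRF with d2 and Eu cryptate antibodies after 4–24 h at room temperature, read at 615 nm emission.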

| SMILES | IC50 |
| --- | --- |
| CCN(c1nc(OC[C@@]23CCCN2C[C@H](F)C3)nc2c(F)c(-c3ccc(F)c4sc(N)c(C#N)c34)c(C(F)(F)F)cc12)[C@H]1CCN(C(=O)N2CCCC2)C1 [Compound 542] | < 100 nM |
| CCN(c1nc(OC[C@@]23CCCN2C[C@H](F)C3)nc2c(F)c(-c3ccc(F)c4sc(N)c(C#N)c34)c(C(F)(F)F)cc12)[C@H]1CCN(C(=O)C2CC2(F)F)C1 (stereo partly drawn) [Compound 548] | < 100 nM |
| CCN(c1nc(OC[C@@]23CCCN2C[C@H](F)C3)nc2c(F)c(-c3ccc(F)c4sc(N)c(C#N)c34)c(C(F)(F)F)cc12)[C@H]1CC(=O)N(CC(F)F)C1 [Compound 549] | < 100 nM |
| CCN(c1nc(OC[C@@]23CCCN2C[C@H](F)C3)nc2c(F)c(-c3ccc(F)c4sc(N)c(C#N)c34)c(C(F)(F)F)cc12)[C@H]1CCN(C(=O)C2(C#N)CC2)C1 [Compound 560] | < 100 nM |
| C[C@@H]1[C@H](N(C)c2nc(OC[C@]34C[C@@H](F)CN3CC3(CC3)C4)nc3c(F)c(-c4ccc(F)c5sc(N)c(C#N)c45)c(C(F)(F)F)cc23)CCN1C(=O)C1CC1 [Compound 564] | < 100 nM |
| [2H]C1([2H])CN2C[C@H](F)C[C@]2(COc2nc(N(CC)[C@H]3CCN(C(=O)C(C)C)C3)c3cc(C(F)(F)F)c(-c4ccc(F)c5sc(N)c(C#N)c45)c(F)c3n2)C1 [Compound 565] | < 100 nM |

molecular target: T4, Avi-KRAS WT (1-169) GppNHp/RAF1 RBD-3xFLAG (52-151) (Homo sapiens, UniProt P01116); experiment: Raf1-KRAS WT-GppNHP disruption HTRF assay (Biological Example 1); format: binding; conditions: KRAS WT-GppNHp/RAF1 RBD HTRF
T4 construct: Avi-KRAS WT (1-169)
T4 sequence (P01116 1-169 isoform P01116-2): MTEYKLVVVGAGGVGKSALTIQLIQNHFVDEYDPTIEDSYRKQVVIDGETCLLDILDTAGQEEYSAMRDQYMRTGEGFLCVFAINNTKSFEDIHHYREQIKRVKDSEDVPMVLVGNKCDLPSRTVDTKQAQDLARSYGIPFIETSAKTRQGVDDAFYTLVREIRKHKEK
In short: as §1

| SMILES | IC50 |
| --- | --- |
| CCN(c1nc(OC[C@@]23CCCN2C[C@H](F)C3)nc2c(F)c(-c3ccc(F)c4sc(N)c(C#N)c34)c(C(F)(F)F)cc12)[C@H]1CCN(C(=O)N2CCCC2)C1 [Compound 542] | < 100 nM |
| CCN(c1nc(OC[C@@]23CCCN2C[C@H](F)C3)nc2c(F)c(-c3ccc(F)c4sc(N)c(C#N)c34)c(C(F)(F)F)cc12)[C@H]1CCN(C(=O)C2CC2(F)F)C1 (stereo partly drawn) [Compound 548] | < 100 nM |
| CCN(c1nc(OC[C@@]23CCCN2C[C@H](F)C3)nc2c(F)c(-c3ccc(F)c4sc(N)c(C#N)c34)c(C(F)(F)F)cc12)[C@H]1CC(=O)N(CC(F)F)C1 [Compound 549] | 100 to 1000 nM |
| CCN(c1nc(OC[C@@]23CCCN2C[C@H](F)C3)nc2c(F)c(-c3ccc(F)c4sc(N)c(C#N)c34)c(C(F)(F)F)cc12)[C@H]1CCN(C(=O)C2(C#N)CC2)C1 [Compound 560] | < 100 nM |
| C[C@@H]1[C@H](N(C)c2nc(OC[C@]34C[C@@H](F)CN3CC3(CC3)C4)nc3c(F)c(-c4ccc(F)c5sc(N)c(C#N)c45)c(C(F)(F)F)cc23)CCN1C(=O)C1CC1 [Compound 564] | 100 to 1000 nM |
| [2H]C1([2H])CN2C[C@H](F)C[C@]2(COc2nc(N(CC)[C@H]3CCN(C(=O)C(C)C)C3)c3cc(C(F)(F)F)c(-c4ccc(F)c5sc(N)c(C#N)c45)c(F)c3n2)C1 [Compound 565] | 100 to 1000 nM |

test system: GP2d cells (KRAS G12D); experiment: Cell-based pERK HTRF assay in GP2d cell (Biological Example 2); conditions: GP2d, GP2d (KRAS G12D) cells, pERK HTRF
In short: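 Cells grown in DMEM with 10% FBS were exposed to compound for 60 min at 0.25% DMSO, using a 9-point half-log series starting at 1 μM or 100 nM. Lysates were then mixed with d2 and Eu cryptate antibodies for 4–24 h at room temperature, and pERK was read by HTRF.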

| SMILES | IC50 |
| --- | --- |
| CCN(c1nc(OC[C@@]23CCCN2C[C@H](F)C3)nc2c(F)c(-c3ccc(F)c4sc(N)c(C#N)c34)c(C(F)(F)F)cc12)[C@H]1CCN(C(=O)N2CCCC2)C1 [Compound 542] | < 100 nM |
| CCN(c1nc(OC[C@@]23CCCN2C[C@H](F)C3)nc2c(F)c(-c3ccc(F)c4sc(N)c(C#N)c34)c(C(F)(F)F)cc12)[C@H]1CCN(C(=O)C2CC2(F)F)C1 (stereo partly drawn) [Compound 548] | < 100 nM |
| CCN(c1nc(OC[C@@]23CCCN2C[C@H](F)C3)nc2c(F)c(-c3ccc(F)c4sc(N)c(C#N)c34)c(C(F)(F)F)cc12)[C@H]1CC(=O)N(CC(F)F)C1 [Compound 549] | < 100 nM |
| CCN(c1nc(OC[C@@]23CCCN2C[C@H](F)C3)nc2c(F)c(-c3ccc(F)c4sc(N)c(C#N)c34)c(C(F)(F)F)cc12)[C@H]1CCN(C(=O)C2(C#N)CC2)C1 [Compound 560] | < 100 nM |
| C[C@@H]1[C@H](N(C)c2nc(OC[C@]34C[C@@H](F)CN3CC3(CC3)C4)nc3c(F)c(-c4ccc(F)c5sc(N)c(C#N)c45)c(C(F)(F)F)cc23)CCN1C(=O)C1CC1 [Compound 564] | < 100 nM |
| [2H]C1([2H])CN2C[C@H](F)C[C@]2(COc2nc(N(CC)[C@H]3CCN(C(=O)C(C)C)C3)c3cc(C(F)(F)F)c(-c4ccc(F)c5sc(N)c(C#N)c45)c(F)c3n2)C1 [Compound 565] | < 100 nM |
